Molecules are shown by their SMILES.

For assay [1], the target named is T1, GST-caspase 8/His-caspase 8 (Homo sapiens, UniProt Q14790).
T1 construct: pTriEx-Caspase-8 DED plasmids; fused on or other part: GST tag on one copy, His tag on the other (AlphaScreen bead handles)
Description: AlphaScreen counter-screen, GST-caspase 8/His-caspase 8 binding. As to conditions: for EC50 for GST-caspase 8/His-caspase 8 interaction: compounds tested 1.4 μM to 3.2 mM. On the procedure:
FIGS. 2A-C are graphs providing data regarding inhibition of protein-protein interactions by 3-(1H-indol-1yl)propan-1-amine (1), three benzimidazole derivatives (2-4), and spinacine (5). Compounds, at the indicated concentrations (1.4 μM to 3.2 mM) were tested using a bead-based screening assay for their ability to inhibit three different protein/protein interactions: (FIG. 2A) GST-E6/His-caspase 8; (FIG. 2B) GST-E6/HisE6AP; and (FIG. 2C) GST-caspase 8/His-caspase 8. Binding in the presence of 1.4 μM of the test compound was set at 100%. Experiments were performed in triplicate, and error bars indicate the standard deviation.
To ask whether this inhibition was specific, a counter-screening assay was employed the ability of candidates to inhibit the binding of GST-caspase 8 to His-caspase 8 was assessed; those that did were to be eliminated. In this counter-screening assay, the materials in each well were the same as in the primary screen, with the exception that GST-caspase 8 replaced GST-E6.
Alpha-Screen™ technology was used to assess the interactions between GST-E6, GST-caspase 8, His-E6AP, and His-caspase 8. Binding assays were performed in white 384-well plates (Perkin-Elmer) in a total volume of 25 μl as previously described (Tungteakkhun, S. S., et al., The interaction between human papillomavirus type 16 and FADD is mediated by a novel E6 binding domain. Journal of virology, 2008. 82(19): p. 9600-14). Briefly, 5 μl (50 ng) of GST-E6 and 5 μl (87.5 ng) of His-caspase 8 were included in each reaction mixture with 5 μl blocking buffer (0.5 mg BSA, 0.5% Tween 20 in PBS) in the absence or presence of 10 μM of each test chemical. Members of the library were present at […] in DMSO. After a one-hour incubation of the mixture at room temperature, 5 μl donor beads and 5 μl acceptor beads (Perkin-Elmer) were added to each well according to the manufacturer's protocol. The mixture was incubated in the dark at room temperature overnight, and the emitted signal was detected using the Envision Multilabel plate reader (Perkin-Elmer). In the presence of test chemicals, the binding affinity was calculated as a percentage of the binding in the presence of carrier only (DMSO).

For assay [2], the system named is caspase 8 level in SiHa cells. Description: Immunoblot of caspase 8 level in SiHa cells. The format is cell-based, human. Particulars: 50, 100 and 200 μM for 24 hr. The method, then: FIGS. 6A-B is an immunoblot and FIG. 6B is a graph showing that treatment with myricetin and spinacine (5) increased cellular levels of caspase 8 and p53. (FIG. 6A) SiHa cells (1×10^6 per well) were seeded into a 6-well plate and allowed to incubate overnight. The indicated concentrations of myricetin and spinacine were added, then cells were incubated for 24 h. Cells were then washed in 1×PBS, then harvested and the resulting level of caspase 8 was measured by immunoblot. (FIG. 6B) SiHa and C33A cells (1×10^6 per well) were seeded into a 6-well plate and allowed to incubate overnight. 200 μM of myricetin and 100 μM spinacine were added together with 4 μg/ml mitomycin C and incubated for 24 h. The resulting level of p53 was measured by ELISA, and the level of p53 found in untreated cells was set at 100%. […]
If this ability is due to inhibition of E6 functions, then an increase in the levels of caspase 8 and p53 should be observable in SiHa cells following treatment with myricetin and spinacine. To test this prediction, SiHa cells were treated with 50, 100, and 200 μM of myricetin or spinacine for 24 hr, and then measured the level of caspase 8 by immunoblot. […]
Cells (1×10^6) were collected and washed with PBS. […] Signals were measured using the Odyssey Infrared Imaging system (LI-COR Biosciences) and expressed in relative light units.

T1 sequence (Q14790 whole entry, the tested form may be a part): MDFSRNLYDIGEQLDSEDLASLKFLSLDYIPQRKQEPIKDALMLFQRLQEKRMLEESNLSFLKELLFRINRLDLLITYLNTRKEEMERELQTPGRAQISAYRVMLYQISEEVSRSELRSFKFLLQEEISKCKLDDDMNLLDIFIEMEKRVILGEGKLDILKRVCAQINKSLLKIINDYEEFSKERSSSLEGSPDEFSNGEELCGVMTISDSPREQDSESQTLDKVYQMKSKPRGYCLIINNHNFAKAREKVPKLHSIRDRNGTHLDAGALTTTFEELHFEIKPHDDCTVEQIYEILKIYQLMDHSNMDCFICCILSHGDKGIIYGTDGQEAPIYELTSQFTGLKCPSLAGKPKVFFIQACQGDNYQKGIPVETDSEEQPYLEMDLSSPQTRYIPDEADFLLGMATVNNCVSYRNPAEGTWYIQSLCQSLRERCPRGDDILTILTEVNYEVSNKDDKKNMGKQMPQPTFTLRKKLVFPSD

With `OCn1cnc2ccccc21` [Compound 3, 1H-benzimidazole-1-methanol], the “EC50 for GST-caspase 8/His-caspase 8 interaction” value in assay [1] is recorded as “No Inhibition”. As for `O=C(O)C1Cc2[nH]cnc2CN1` (centres unmarked) [Compound 5, 4,5,6,7-Tetrahydro-1H-imidazo(4,5-c)pyridine-6-carboxylic acid], the “inhibition of caspase 8/caspase 8 interaction (in words)” value in assay [1] (FIG. 2C) is “did not significantly inhibit”. Further, in assay [1], the “EC50 for GST-caspase 8/His-caspase 8 interaction” value is “No”. In addition, the “caspase 8 levels in SiHa cells (in words)” value in assay [2] is recorded as “increase in caspase 8 at doses from 50 to 200 μM”. Turning to `O=c1c(O)c(-c2cc(O)c(O)c(O)c2)oc2cc(O)cc(O)c12` [Myricetin, reference compound], in assay [2], the “caspase 8 levels in SiHa cells (in words)” value is “increase in caspase 8 levels at doses of 100 μM and 200 μM”.

Values taken from patent publication US20180200233A1, “COMPOSITIONS FOR PREVENTING CANCERS ASSOCIATED WITH HUMAN PAPILLOMA VIRUSES” (Loma Linda University, priority 2015, published 2018).
